Holding throughout (experiment): Agarose dilution MIC assay
Assay type in all cases: cell-based

For one experiment, the system named is C. jeikeium. Particulars: C. jeikeium strain CJK005. An excerpt:
(§1) The agarose dilution assay measures antimicrobial activity of peptides and peptide analogues. The activity is expressed as the minimum inhibitory concentration (MIC) in μg/ml of the peptide.
(§2) In order to mimic in vivo conditions, calcium and magnesium supplemented Mueller Hinton broth is used in combination with a low EEO agarose as the bacterial growth medium. Agarose, rather than agar, is used as the charged groups in agar prevent peptide diffusion through the medium. The medium is autoclaved, then cooled to 50-55° C. in a water bath before aseptic addition of a peptide solution. The same volume of different concentrations of peptide solution is added to the cooled, molten agarose that is then poured into a petri plate to a depth of 3-4 mm and allowed to solidify.
(§3) The bacterial inoculum is adjusted to a 0.5 McFarland turbidity standard (PML Microbiological) and then diluted 1:10 before application on to the agarose plate. The final inoculum applied to the agarose is approximately 10^4 CFU in a 5-8 mm diameter spot. The agarose plates are incubated at 35-37° C. for 16 to 20 hours.

In a further experiment the test system is K. pneumoniae.
Text: as §1, §2, §3

The subject of the next experiment is S. maltophilia. Particulars: S. maltophilia strain SMA002.
Text: as §1, §2, §3

A further experiment has as its system S. pneumoniae. The conditions noted are these: S. pneumoniae strain SPN002.
Text: as §1, §2, §3

For the next experiment, the system named is S. aureus. Particulars: for Minimum Inhibitory Concentration: S. aureus strain SAU014, agarose dilution.
Text: as §1, §2, §3

In the next experiment the test system is C. neoformans. Particulars: C. neoformans strain CNE001.
Text: as §1, §2, §3

Another experiment concerns C. albicans. Particulars: for Minimum Inhibitory Concentration: C. albicans strain CAL002, agarose dilution.
Text: as §1, §2, §3

The subject of a further experiment is S. pyogenes. The conditions noted are these: S. pyogenes strain SPY001.
Text: as §1, §2, §3

A further experiment concerns E. faecalis. The conditions noted are these: E. faecalis strain EFS001.
Text: as §1, §2, §3

The next experiment relates to E. coli. The conditions noted are these: E. coli strain ECO005.
Text: as §1, §2, §3

Another experiment concerns S. mitis. The conditions noted are these: S. mitis strain SMT014.
Text: as §1, §2, §3

The test system of a further experiment is S. marcescens. The conditions noted are these: S. marcescens strain SMS003.
Text: as §1, §2, §3

A further experiment deals with S. epidermidis. The conditions noted are these: for Minimum Inhibitory Concentration: S. epidermidis strain SEP010, agarose dilution.
Text: as §1, §2, §3

A further experiment deals with P. aeruginosa. The conditions noted are these: for Minimum Inhibitory Concentration: P. aeruginosa strain PAE004, agarose dilution.
Text: as §1, §2, §3

For a further experiment, the system named is E. cloacae. The conditions noted are these: E. cloacae strain ECL007.
Text: as §1, §2, §3

The test system of a further experiment is A. calcoaceticus. The conditions noted are these: A. calcoaceticus strain ACA002.
Text: as §1, §2, §3

Turning to W V R L W W R R V W [Peptide 11F93CN], the “Minimum Inhibitory Concentration” value with C. jeikeium was 0.5 µg/mL; with K. pneumoniae (K. pneumoniae strain KPN001), 64 µg/mL; with S. maltophilia it was 8 µg/mL; in the experiment with S. pneumoniae it was 4 µg/mL; in the experiment on S. aureus, 2e-06 µg/mL; with C. neoformans, 8 µg/mL.
Turning to R L W W V V W W R R [Peptide 11F56CN], the “Minimum Inhibitory Concentration” value was found to be 0.5 µg/mL in the experiment on C. jeikeium; 16 µg/mL in the experiment on C. albicans; 1 µg/mL in the experiment on S. pyogenes; 2 µg/mL in the experiment with E. faecalis; 2 µg/mL in the experiment on E. coli; 1 µg/mL in the experiment with S. mitis. The “Minimum Inhibitory Concentration” value in the experiment on S. marcescens is greater than 128 µg/mL; in the experiment on K. pneumoniae (K. pnenmoniae strain KPN001) it was 2 µg/mL; in the experiment with S. maltophilia, 2 µg/mL; in the experiment on S. epidermidis, 1 µg/mL; with S. pneumoniae, 2 µg/mL; in the experiment with P. aeruginosa it was 32 µg/mL. Besides, the “Minimum Inhibitory Concentration” value in the experiment on S. aureus is 1 µg/mL; with E. cloacae, 32 µg/mL; with C. neoformans, 8 µg/mL; in the experiment with A. calcoaceticus it was 1 µg/mL.
In the case of W P W W P W R R K [Peptide 11G27CN], the “Minimum Inhibitory Concentration” value in the experiment on C. jeikeium was 0.5 µg/mL; with E. coli it was 6.4e-05 µg/mL; in the experiment on K. pneumoniae (K. pneumoniae strain KPN001) it was greater than 128 µg/mL; with S. maltophilia, 64 µg/mL; in the experiment with S. epidermidis, 8e-06 µg/mL; in the experiment with S. pneumoniae, 32 µg/mL. The “Minimum Inhibitory Concentration” value in the experiment on P. aeruginosa was greater than 0.000128 µg/mL; with C. neoformans, 16 µg/mL; in the experiment on A. calcoaceticus, 1.6e-05 µg/mL.
Turning to R L V V W W V V R R [Peptide 11F63CN], the “Minimum Inhibitory Concentration” value with C. jeikeium stood at 1 µg/mL; with C. albicans, 16 µg/mL; in the experiment on S. pyogenes, 1 µg/mL; in the experiment on E. faecalis it was 4 µg/mL; with E. coli, 2 µg/mL; in the experiment with S. mitis it was 2 µg/mL. Besides, the “Minimum Inhibitory Concentration” value with S. marcescens was greater than 128 µg/mL; with K. pneumoniae (K. pnenmoniae strain KPN001) it was 4 µg/mL; in the experiment on S. maltophilia, 0.5 µg/mL; in the experiment on S. epidermidis it was 1 µg/mL; with S. pneumoniae, 4 µg/mL; in the experiment with P. aeruginosa, 8 µg/mL. In addition, the “Minimum Inhibitory Concentration” value in the experiment on S. aureus was 2 µg/mL; in the experiment with E. cloacae, 16 µg/mL; with C. neoformans, 8 µg/mL; with A. calcoaceticus, 2 µg/mL.
Take “W R W W K P K W R W P K W [Peptide 11J02ACN]”: the “Minimum Inhibitory Concentration” value with C. jeikeium came out at 0.5 µg/mL; in the experiment with E. faecalis it was 6.4e-05 µg/mL; in the experiment with E. coli, 1.6e-05 µg/mL; with K. pneumoniae (K. pneumoniae strain KPN001), 32 µg/mL; with S. maltophilia, 8 µg/mL; in the experiment on S. pneumoniae, 16 µg/mL. The “Minimum Inhibitory Concentration” value is 8e-06 µg/mL with S. aureus, greater than 3.2e-05 µg/mL in the experiment on E. cloacae and 16 µg/mL in the experiment on C. neoformans.
As for “W (Orn) W W (Orn) V A W (Orn) W V (Orn) W [Peptide 11J58CN]”, the “Minimum Inhibitory Concentration” value in the experiment with C. jeikeium came to 0.5 µg/mL; with E. faecalis, 3.2e-05 µg/mL; with S. mitis it was 1e-06 µg/mL; in the experiment with K. pneumoniae (K. pneumoniae strain KPN001), 2 µg/mL; in the experiment on S. maltophilia it was 2 µg/mL; in the experiment with S. pneumoniae, 2 µg/mL. Moreover, the “Minimum Inhibitory Concentration” value in the experiment with P. aeruginosa is 1.6e-05 µg/mL; in the experiment on E. cloacae, 1.6e-05 µg/mL; with C. neoformans, 2 µg/mL; in the experiment with A. calcoaceticus, 1e-06 µg/mL.
On to r L W V W W V W R R [Peptide 11F67CN], for which the “Minimum Inhibitory Concentration” value in the experiment with C. jeikeium was found to be 0.5 µg/mL; in the experiment on C. albicans it was 32 µg/mL; in the experiment with S. pyogenes, 1 µg/mL; in the experiment on E. faecalis, 4 µg/mL; in the experiment with E. coli, 2 µg/mL; in the experiment on S. mitis, 1 µg/mL. Also, the “Minimum Inhibitory Concentration” value in the experiment with S. marcescens is greater than 128 µg/mL; in the experiment with K. pneumoniae (K. pnenmoniae strain KPN001), 2 µg/mL; in the experiment with S. maltophilia, 2 µg/mL; with S. epidermidis, 1 µg/mL; with S. pneumoniae, 2 µg/mL; with P. aeruginosa it was 16 µg/mL. Further, the “Minimum Inhibitory Concentration” value is 2 µg/mL with S. aureus, 32 µg/mL in the experiment with E. cloacae, 8 µg/mL in the experiment with C. neoformans and 2 µg/mL with A. calcoaceticus.
Regarding “I L R R W V W W V W R R K [Peptide 11F5CN]”, the “Minimum Inhibitory Concentration” value with C. jeikeium was 0.5 µg/mL; in the experiment with C. albicans it was 32 µg/mL; in the experiment with S. pyogenes it was 2 µg/mL; in the experiment on E. faecalis, 16 µg/mL; with E. coli, 16 µg/mL; in the experiment with S. mitis it was 2 µg/mL. Also, the “Minimum Inhibitory Concentration” value is greater than 128 µg/mL in the experiment with S. marcescens; 64 µg/mL with K. pneumoniae (K. pnenmoniae strain KPN001); 16 µg/mL with S. maltophilia; 2 µg/mL with S. epidermidis; 4 µg/mL in the experiment on S. pneumoniae; 64 µg/mL in the experiment on P. aeruginosa. The “Minimum Inhibitory Concentration” value was 8 µg/mL in the experiment on S. aureus, 128 µg/mL in the experiment on E. cloacae, 8 µg/mL in the experiment on C. neoformans and 4 µg/mL with A. calcoaceticus.
Turning to “W (Dab) W W (Dab) P (Dab) W (Dab) W P (Dab) W [Peptide 11J68CN]”, the “Minimum Inhibitory Concentration” value is less than 0.25 µg/mL with C. jeikeium; 5e-07 µg/mL with S. pyogenes; 4 µg/mL in the experiment on K. pneumoniae (K. pneumoniae strain KPN001); 4 µg/mL with S. maltophilia; 1 µg/mL in the experiment with S. pneumoniae; 4e-06 µg/mL in the experiment with P. aeruginosa. The “Minimum Inhibitory Concentration” value in the experiment with E. cloacae was 1.6e-05 µg/mL; in the experiment with C. neoformans, 1 µg/mL; in the experiment on A. calcoaceticus, 5e-07 µg/mL.
As to “W R W W K V W R W V K W [Peptide 11J36CN]”, the “Minimum Inhibitory Concentration” value was determined as 0.5 µg/mL in the experiment with C. jeikeium; 1e-06 µg/mL in the experiment on S. mitis; 4 µg/mL in the experiment on K. pneumoniae (K. pneumoniae strain KPN001); 2 µg/mL with S. maltophilia; 2 µg/mL in the experiment with S. pneumoniae; 4 µg/mL with C. neoformans.
Regarding “W (Orn) W W (Orn) P (Orn) W (Orn) W P (Orn) W [Peptide 11J67CN]”, the “Minimum Inhibitory Concentration” value in the experiment on C. jeikeium is less than 0.25 µg/mL; with E. faecalis, 6.4e-05 µg/mL; with K. pneumoniae (K. pneumoniae strain KPN001), 8 µg/mL; in the experiment on S. maltophilia, 1 µg/mL; in the experiment with S. pneumoniae, 2 µg/mL; with S. aureus it was 2e-06 µg/mL. For the same substance, the “Minimum Inhibitory Concentration” value with C. neoformans was 2 µg/mL; in the experiment with A. calcoaceticus, 1e-06 µg/mL.
As for “I L R W P W W P W R R K [Peptide 11B7CN]”, the MIC result was “Organism Tested: C. albicans (CA002) MIC = 64 ug/ml” in the experiment on C. albicans (C. albicans (CA002), Table 6); “Organism Tested: S. epidermidis (SE010) MIC = 4 ug/ml” in the experiment on S. epidermidis (S. epidermidis (SE010), Table 6); “Organism Tested: P. aeruginosa (PA004) MIC = 128 ug/ml” in the experiment on P. aeruginosa (P. aeruginosa (PA004), Table 6); “Organism Tested: S. aureus (SA016) MIC = 2 ug/ml” in the experiment on S. aureus (S. aureus (SA016), Table 6).
